Experimental data: patent US8536202B2, “Triazole-substituted anthranilamides as pesticides” (Bayer Cropscience AG, priority 2010, dated 2013)
Like-named read-outs stand apart in the source and are kept apart here.

How the values were obtained:
[1] = tested on: caterpillars of the armyworm (Spodoptera frugiperda); assay: Spodoptera frugiperda test (SPODFR spray treatment); assay type: in vivo; conditions: 168 h, read-out: activity in %
Description: (§1) Solvents: 78.0 parts by weight of acetone • • 1.5 parts by weight of dimethylformamide
(§2) Emulsifier: 0.5 part by weight of alkylaryl polyglycol ether
(§3) An appropriate preparation of active compound is prepared by mixing 1 part by weight of active compound with the stated amounts of solvent and emulsifier and diluting the concentrate with emulsifier-containing water to the desired concentration.
Leaf discs of maize (Zea mays) are sprayed with a preparation of active compound at the desired concentration and, after drying, are populated with caterpillars of the armyworm (Spodoptera frugiperda).
After 7 days, the activity in % is ascertained. Here, 100% means that all of the caterpillars have been killed; 0% means that no caterpillar has been killed.

[2] = log P determination by HPLC on reversed-phase columns (EEC Directive 79/831 Annex V.A8); assay type: physicochemical; conditions: pH 2.7
Description: Determination by LC-MS in the acidic range takes place at a pH of 2.7 using 0.1% aqueous formic acid and acetonitrile (containing 0.1% formic acid) as eluents, with a linear gradient from 10% acetonitrile to 95% acetonitrile.
Calibration was carried out using unbranched alkan-2-ones (having 3 to 16 carbon atoms) with known log P values (the log P values are determined from the retention times by linear interpolation between two successive alkanones).

[3] = tested on: larvae of the mustard beetle (Phaedon cochleariae); assay: Phaedon test (PHAECO spray treatment); assay type: in vivo; conditions: 168 h, 100 g/ha, after 7 days, read-out: activity in %
Description: as §1, §2, §3
After 7 days, the activity in % is ascertained. Here, 100% means that all of the beetle larvae have been killed; 0% means that no beetle larvae have been killed.

[4] = reversed-phase C18 HPLC column, HPLC on reversed-phase columns (C 18), EEC Directive 79/831 Annex V.A8, read-out: logP
[5] = HPLC on reversed-phase columns (C 18), EEC Directive 79/831 Annex V.A8, read-out: logP

Structure (SMILES) | pest or weed control at 100 g/ha ([1]; 100 g/ha, after 7 days) | chromatographic logP [2] | other results
Cc1cc(C#N)cc(C(=O)NC(C)(C)C)c1NC(=O)c1cc(Cn2ncc(C(F)(F)F)n2)nn1-c1ncccc1Br [Example 10] | 100% | – | chromatographic logP [2, 4]: 3.04
CNC(=O)c1cc(Cl)cc(C)c1NC(=O)c1cc(Cn2cc(C3CC3)nn2)nn1-c1ncccc1Cl [Example 13] | – | 2.14 | –
CNC(=O)c1cc(Cl)cc(C)c1NC(=O)c1cc(Cn2cc(C(C)C)nn2)nn1-c1ncccc1Cl [Example 14] | – | 2.29 | pest or weed control at 100 g/ha [3]: 83%
CNC(=O)c1cc(Cl)cc(C)c1NC(=O)c1cc(Cn2cc(C(C)(C)C)nn2)nn1-c1ncccc1Cl [Example 15] | – | 2.53 | –
CNC(=O)c1cc(Cl)cc(C)c1NC(=O)c1cc(Cn2ncc(C(C)C)n2)nn1-c1ncccc1Cl [Example 22] | 100% | 2.85 | –
CNC(=O)c1cc(Cl)cc(C)c1NC(=O)c1cc(Cn2ncc(C(C)(C)C)n2)nn1-c1ncccc1Cl [Example 23] | 83% | 3.2 | –
CNC(=O)c1cc(C#N)cc(C)c1NC(=O)c1cc(Cn2cc(C3CC3)nn2)nn1-c1ncccc1Cl [Example 29] | – | 1.86 | pest or weed control at 100 g/ha [3]: 100%
CNC(=O)c1cc(C#N)cc(C)c1NC(=O)c1cc(Cn2cc(C(C)C)nn2)nn1-c1ncccc1Cl [Example 30] | – | 2.03 | pest or weed control at 100 g/ha [3]: 100%
CNC(=O)c1cc(C#N)cc(C)c1NC(=O)c1cc(Cn2cc(C(C)(C)C)nn2)nn1-c1ncccc1Cl [Example 31] | – | 2.25 | pest or weed control at 100 g/ha [3]: 100%
CNC(=O)c1cc(C#N)cc(C)c1NC(=O)c1cc(Cn2cc(-c3ccc(F)cc3)nn2)nn1-c1ncccc1Cl [Example 32] | 100% | 2.41 | –
CNC(=O)c1cc(C#N)cc(C)c1NC(=O)c1cc(Cn2cc(-c3ccccc3Cl)nn2)nn1-c1ncccc1Cl [Example 35] | 100% | 2.63 | –
CNC(=O)c1cc(C#N)cc(C)c1NC(=O)c1cc(Cn2ncc(C3CC3)n2)nn1-c1ncccc1Cl [Example 37] | – | 2.28 | pest or weed control at 100 g/ha [3]: 100%
Cc1cc(Cl)cc(C(=O)NC(C)(C)C)c1NC(=O)c1cc(Cn2ncc(C(C)C)n2)nn1-c1ncccc1Cl [Example 47] | – | 3.86 | –
Cc1cc(Cl)cc(C(=O)NC(C)(C)C)c1NC(=O)c1cc(Cn2ncc(C(C)(C)C)n2)nn1-c1ncccc1Cl [Example 48] | – | 4.25 | –
Cc1cc(Cl)cc(C(=O)NC(C)(C)C)c1NC(=O)c1cc(Cn2ncc(-c3ccc(Cl)cc3)n2)nn1-c1ncccc1Cl [Example 49] | – | 4.58 | –
Cc1cc(C#N)cc(C(=O)NC(C)(C)C)c1NC(=O)c1cc(Cn2cc(C(C)C)nn2)nn1-c1ncccc1Cl [Example 51] | – | 2.74 | –
Cc1cc(C#N)cc(C(=O)NC(C)(C)C)c1NC(=O)c1cc(Cn2cc(C(C)(C)C)nn2)nn1-c1ncccc1Cl [Example 52] | – | 3.02 | –
Cc1cc(C#N)cc(C(=O)NC(C)(C)C)c1NC(=O)c1cc(Cn2cc(-c3ccccc3Cl)nn2)nn1-c1ncccc1Cl [Example 56] | 83% | 3.45 | –
Cc1cc(C#N)cc(C(=O)NC(C)(C)C)c1NC(=O)c1cc(Cn2ncc(C3CC3)n2)nn1-c1ncccc1Cl [Example 58] | 100% | 3.12 | –
Cc1cc(C#N)cc(C(=O)NC(C)(C)C)c1NC(=O)c1cc(Cn2ncc(C(C)C)n2)nn1-c1ncccc1Cl [Example 59] | – | 3.38 | –
Cc1cc(C#N)cc(C(=O)NC(C)(C)C)c1NC(=O)c1cc(Cn2ncc(C(C)(C)C)n2)nn1-c1ncccc1Cl [Example 60] | – | 3.74 | –
CNC(=O)c1cc(Cl)cc(C)c1NC(=O)c1cc(Cn2nnc3ccccc32)nn1-c1ncccc1Cl [Example 66] | 100% | 2.38 | –
CNC(=O)c1cc(Cl)cc(C)c1NC(=O)c1cc(Cn2nc3ccccc3n2)nn1-c1ncccc1Cl [Example 67] | 100% | 2.75 | –
CNC(=O)c1cc(Cl)cc(C)c1NC(=O)c1cc(Cn2nnc3cc(Cl)ccc32)nn1-c1ncccc1Cl [Example 68] | 100% | 2.9 | –
CNC(=O)c1cc(Cl)cc(C)c1NC(=O)c1cc(Cn2nnc3cc(C)ccc32)nn1-c1ncccc1Cl [Example 69] | 100% | 2.63 | –

Structure (SMILES) | pest or weed control at 100 g/ha ([1]; 100 g/ha, after 7 days) | chromatographic logP [2] | other results
CNC(=O)c1cc(Cl)cc(C)c1NC(=O)c1cc(Cn2nc3ccc(C)cc3n2)nn1-c1ncccc1Cl [Example 73] | – | 3.05 | –
CNC(=O)c1cc(Cl)cc(C)c1NC(=O)c1cc(Cn2nnc3cc(Cl)c(Cl)cc32)nn1-c1ncccc1Cl [Example 76] | – | 3.33 | –
CNC(=O)c1cc(Cl)cc(C)c1NC(=O)c1cc(Cn2nnc3ccc(F)cc32)nn1-c1ncccc1Cl [Example 78] | 100% | 2.57 | –
CNC(=O)c1cc(C#N)cc(C)c1NC(=O)c1cc(Cn2nnc3cc(Cl)c(Cl)cc32)nn1-c1ncccc1Cl [Example 80] | 100% | 2.96 | –
CNC(=O)c1cc(C#N)cc(C)c1NC(=O)c1cc(Cn2nnc3ccc(F)cc32)nn1-c1ncccc1Cl [Example 82] | 100% | 2.24 | –
CNC(=O)c1cc(C#N)cc(C)c1NC(=O)c1cc(Cn2nc3ccc(F)cc3n2)nn1-c1ncccc1Cl [Example 83] | 100% | 2.55 | –
CNC(=O)c1cc(Cl)cc(C)c1NC(=O)c1cc(Cn2nnc3c(Cl)c(Cl)c(Cl)c(Cl)c32)nn1-c1ncccc1Cl [Example 84] | 100% | 4.19 | –
CNC(=O)c1cc(Cl)cc(C)c1NC(=O)c1cc(Cn2nc3c(Cl)c(Cl)c(Cl)c(Cl)c3n2)nn1-c1ncccc1Cl [Example 85] | – | 4.66 | –
CNC(=O)c1cc(C#N)cc(C)c1NC(=O)c1cc(Cn2nc3c(Cl)c(Cl)c(Cl)c(Cl)c3n2)nn1-c1ncccc1Cl [Example 93] | – | 4.24 | –
CNC(=O)c1cc(C#N)cc(C)c1NC(=O)c1cc(Cn2nnc3cc([N+](=O)[O-])ccc32)nn1-c1ncccc1Cl [Example 103] | 100% | 2.34 | –
Cc1cc(C#N)cc(C(=O)NC(C)(C)C)c1NC(=O)c1cc(Cn2nnc3c(Cl)c(Cl)c(Cl)c(Cl)c32)nn1-c1ncccc1Cl [Example 104] | – | 4.64 | –
Cc1cc(C#N)cc(C(=O)NC(C)(C)C)c1NC(=O)c1cc(Cn2nc3c(Cl)c(Cl)c(Cl)c(Cl)c3n2)nn1-c1ncccc1Cl [Example 105] | – | 5.13 | –
Cc1cc(C#N)cc(C(=O)NC(C)(C)C)c1NC(=O)c1cc(Cn2nnc3cc(Br)ccc32)nn1-c1ncccc1Cl [Example 106] | 100% | 3.31 | –
Cc1cc(C#N)cc(C(=O)NC(C)(C)C)c1NC(=O)c1cc(Cn2nnc3cc([N+](=O)[O-])ccc32)nn1-c1ncccc1Cl [Example 115] | 100% | 3.03 | –
Cc1cc(Cl)cc(C(=O)NC(C)C)c1NC(=O)c1cc(Cn2ccnn2)nn1-c1ncccc1Cl [Example 116] | – | 2.12 | –
Cc1cc(F)cc(C(=O)NC(C)(C)C)c1NC(=O)c1cc(Cn2ncc(C(F)(F)F)n2)nn1-c1ncccc1Cl [Example 171] | 100% | 4.02 | –
Cc1cc(Br)cc(C(=O)NC(C)C2CC2)c1NC(=O)c1cc(Cn2ncc(C(F)(F)F)n2)nn1-c1ncccc1Cl (centres unmarked) [Example 173] | – | 3.87 | –
Cc1cc(C#N)cc(C(=O)NC2CC2)c1NC(=O)c1cc(Cn2cc(C(F)(F)F)nn2)nn1-c1ncccc1Cl [Example 179] | – | 2.5 | –
Cc1cc(Cl)cc(C(=O)NC2CC2)c1NC(=O)c1cc(Cn2cc(C(F)(F)F)nn2)nn1-c1ncccc1Cl [Example 188] | – | 2.82 | –
Cc1cc(Cl)cc(C(=O)NC(C)(C)C)c1NC(=O)c1cc(Cn2cc(C(F)(F)F)nn2)nn1-c1ncccc1Cl [Example 191] | 100% | 3.44 | –
O=C(NC1CC1)c1cc(Cl)cc(Cl)c1NC(=O)c1cc(Cn2cc(C(F)(F)F)nn2)nn1-c1ncccc1Cl [Example 199] | 100% | 2.89 | –
CC(C)NC(=O)c1cc(Cl)cc(Cl)c1NC(=O)c1cc(Cn2cc(C(F)(F)F)nn2)nn1-c1ncccc1Cl [Example 200] | 100% | 3.1 | –
Cc1cc(C#N)cc(C(=O)NC(C)(C)C)c1NC(=O)c1cc(Cn2cc(C(F)(F)F)nn2)nn1-c1ccccc1Cl [Example 292] | 100% | – | chromatographic logP [2, 4]: 3.48
CCNC(=O)c1cc(C#N)cc(C)c1NC(=O)c1cc(Cn2cc(C(F)(F)C(F)(F)C(F)(F)F)nn2)nn1-c1ncccc1Cl [Example 330] | – | – | chromatographic logP [2, 5]: 3.24
Cc1cc(Cl)cc(C(=O)NC(C)(C)C)c1NC(=O)c1cc(Cn2ncc(C(F)(F)C(F)(F)C(F)(F)F)n2)nn1-c1ncccc1Cl [Example 374] | – | – | pest or weed control at 100 g/ha [1]: 100%; chromatographic logP [2, 5]: 4.65
